Measured values: US9474775B2, “Compound, extract isolated from antrodia camphorate, and method using the same” (priority 2013, dated 2016)
Converted amounts (≈) assume the structure as drawn.

Assays:
Type in all cases: cell-based
[1] = test system: A549 cell line (lung cancer); test: MTT cell viability assay, A549 cell line (lung cancer); conditions: Homo sapiens, 48 hours, read-out: half maximal inhibitory concentration (IC50), A549
Protocol: (§1) Cell proliferation of A549 cell line (lung cancer), CT26 cell line (colon cancer), DU145 cell line (prostate cancer), HepG2 cell line (liver cancer), PC3 cell line (prostate cancer), MDA-MB-231 cell line (breast cancer) and MCF-7 cell line (breast cancer) was assessed by MTT cell viability assay.
(§2) Above cell lines were cultured in determined medium for 24 hours. Proliferative cells were washed with PBS solution, treated with trpsin-EDTA (1×), centrifuged at 1,200 rpm for 5 min, precipitated the cells and discarded supernatant. The cells were resuspended with 10 ml of fresh medium, and then loaded to 96-well plate. While the assay initiated, 0.01˜200 μg/ml of Antrodia camphorata extract was added in each well, and the plate was incubated for 48 hours, at 37° C., 5% CO2. Each wall was added with 2.5 mg/ml MTT reagent in the dark. After 4 hours of reaction, 100 μl lysis buffer were added to each wall to terminate the reaction. […] The experiment data was represented by means±SD. All data was statistically analyzed by paired-t test, and a P-value less than 0.05 was considered significant.

[2] = test system: CT26 cell line (colon cancer); test: MTT cell viability assay, CT26 cell line (colon cancer); conditions: Mus musculus, 48 hours, read-out: half maximal inhibitory concentration (IC50), CT26
Protocol: as §1, §2

[3] = test system: DU145 cell line (prostate cancer); test: MTT cell viability assay, DU145 cell line (prostate cancer); conditions: Homo sapiens; DU-145, MTT, 48 hours; read-out: half maximal inhibitory concentration (IC50), DU-145
Protocol: as §1, §2

[4] = test system: HepG2 cell line (liver cancer); test: MTT cell viability assay, HepG2 cell line (liver cancer); conditions: Homo sapiens, 48 hours, read-out: half maximal inhibitory concentration (IC50), HepG2
Protocol: as §1, §2

[5] = test system: PC3 cell line (prostate cancer); test: MTT cell viability assay, PC3 cell line (prostate cancer); conditions: Homo sapiens, PC-3, 48 hours, read-out: half maximal inhibitory concentration (IC50), PC3
Protocol: as §1, §2

[6] = test system: MDA-MB-231 cell line (breast cancer); test: MTT cell viability assay, MDA-MB-231 cell line (breast cancer); conditions: Homo sapiens; MDA-MB-231, MTT, 48 hours; read-out: half maximal inhibitory concentration (IC50), MDA-MB-231
Protocol: as §1, §2

[7] = test system: MCF-7 cell line (breast cancer); test: MTT cell viability assay, MCF-7 cell line (breast cancer); conditions: Homo sapiens, MCF7; MCF-7, MTT, 48 hours; read-out: half maximal inhibitory concentration (IC50), MCF-7
Protocol: as §1, §2

[8] = Solvent (DMSO) cytotoxicity, cell death; conditions: DMSO content of diluted drug; cell line not stated
Protocol: The symbols used in tables respectively represent: 0-25% cell viability: +/−; 25˜50% cell viability: +; 50˜75% cell viability: ++, 75˜100% cell viability: +++, >100% cell viability: ++++. […] In this experiment, when the drug concentration was diluted to […], DMSO concentration was 0.5%.

IC50 [1] [mg/L] | IC50 [2] [mg/L] | IC50 [3] [mg/L] | IC50 [4] [mg/L] | IC50 [5] [mg/L] | IC50 [6] [mg/L] | IC50 [7] [mg/L] | SMILES | IC50 value of the solvent (50% cell death) [8] [%]
0.014 ± 0.002 (≈ 0.0344 µM) | 0.011 ± 0.001 (≈ 0.0271 µM) | 0.07 ± 0.001 (≈ 0.172 µM) | 0.004 ± 0.001 (≈ 0.00984 µM) | 0.009 ± 0.001 (≈ 0.0221 µM) | 1.01 ± 0.06 (≈ 2.48 µM) | 0.1 ± 0.01 (≈ 0.246 µM) | COC1=C(OC)[C@H](O)[C@H](C/C=C(\C)CC/C=C(\C)C/C=C/C(C)(C)O)[C@@H](C)C1=O [Antrocamol LT3, (4R,5R,6R)-4-hydroxy-5-[(2E,6E,9E)-11-hydroxy-3,7,11-trimethyldodeca-2,6,9-trienyl]-2,3-dimethoxy-6-methylcyclohex-2-enone] | 
 |  |  |  |  |  |  | C[S+](C)[O-] [DMSO] | 2.34
